Measurements from US20050124667A1, “Oxamide inhibitors of plasminogen activator inhibitor-1” (priority 2003, published 2005).

Compound | melting point [°C]
CN1CCCC1CCNC(=O)c1ccc(O)c(NC(=O)C(=O)Nc2cc(Cl)cc(Cl)c2O)c1 (racemic) [Example 34, N-(3,5-Dichloro-2-hydroxy-phenyl)-N′-{2-hydroxy-5-[2-(1-methyl-pyrrolidin-2-yl)-ethylcarbamoyl]-phenyl}-oxalamide (Racemic)] | 220
CCOC(=O)C(Cc1ccccc1)NC(=O)c1ccc(O)c(NC(=O)C(=O)Nc2cc(Cl)cc(Cl)c2O)c1 (stereo in doubt) [Example 32, 2(2R)-{3-[(3,5-Dichloro-2-hydroxy-phenylaminooxalyl)-amino]-4-hydroxy-benzoylamino}-3-phenyl-propionic acid ethyl ester] | 254
Cc1ccc(NC(=O)C(=O)Nc2cc(Cl)cc(Cl)c2O)c(O)c1 [Example 3, N-(3,5-Dichloro-2-hydroxy-phenyl)-N′-(2-hydroxy-4-methyl-phenyl)-oxalamide] | 283
O=C(Nc1cc([N+](=O)[O-])ccc1O)C(=O)Nc1cc(Cl)cc(Cl)c1O [Example 4, N-(3,5-Dichloro-2-hydroxy-phenyl)-N′-(2-hydroxy-5-nitro-phenyl)-oxalamide] | 386
O=C(Nc1cc(-c2ccccc2)ccc1O)C(=O)Nc1cc(Cl)cc(Cl)c1O [Example 5, N-(3,5-Dichloro-2-hydroxy-phenyl)-N′-(4-hydroxy-biphenyl-3-yl)-oxalamide] | 288
O=C(Nc1cc2ccccc2cc1O)C(=O)Nc1cc(Cl)cc(Cl)c1O [Example 6, N-(3,5-Dichloro-2-hydroxy-phenyl)-N′-(3-hydroxy-naphthalen-2-yl)-oxalamide] | 313
O=C(Nc1cc(Cl)ccc1O)C(=O)Nc1cc(Cl)cc(Cl)c1O [Example 7, N-(5-Chloro-2-hydroxy-phenyl)-N′-(3,5-dichloro-2-hydroxy-phenyl)-oxalamide] | 311
O=C(Nc1cc(Cl)cc(Cl)c1O)C(=O)Nc1c(O)ccc2ccccc12 [Example 8, N-(3,5-Dichloro-2-hydroxy-phenyl)-N′-(2-hydroxy-naphthalen-1-yl)-oxalamide] | 265
CCC(C)(C)c1ccc(NC(=O)C(=O)Nc2cc(Cl)cc(Cl)c2O)c(O)c1 [Example 9, N-(3,5-Dichloro-2-hydroxy-phenyl)-N′-[4-(1,1-dimethyl-propyl)-2-hydroxy-phenyl]-oxalamide] | 260
Cc1cccc(O)c1NC(=O)C(=O)Nc1cc(Cl)cc(Cl)c1O [Example 10, N-(3,5-Dichloro-2-hydroxy-phenyl)-N′-(2-hydroxy-6-methyl-phenyl)-oxalamide] | 260
COC(=O)c1ccc(NC(=O)C(=O)Nc2cc(Cl)cc(Cl)c2O)c(O)c1 [Example 12, 4-[(3,5-Dichloro-2-hydroxy-phenylaminooxalyl)-amino]-3-hydroxy-benzoic Acid Methyl Ester] | 271
N#Cc1ccc(O)c(NC(=O)C(=O)Nc2cc(Cl)cc(Cl)c2O)c1 [Example 15, N-(5-Cyano-2-hydroxy-phenyl)-N′-(3,5-dichloro-2-hydroxy-phenyl)-oxalamide] | 298
COc1ccc(O)c(NC(=O)C(=O)Nc2cc(Cl)cc(Cl)c2O)c1 [Example 17, N-(3,5-Dichloro-2-hydroxy-phenyl)-N′-(2-hydroxy-5-methoxy-phenyl)-oxalamide] | 273
O=C(Nc1cc(F)ccc1O)C(=O)Nc1cc(Cl)cc(Cl)c1O [Example 18, N-(3,5-Dichloro-2-hydroxy-phenyl)-N′-(5-fluoro-2-hydroxy-phenyl)-oxalamide] | 297
O=C(Nc1cccc(Cl)c1O)C(=O)Nc1cc(Cl)cc(Cl)c1O [Example 19, N-(3-Chloro-2-hydroxy-phenyl)-N′-(3,5-dichloro-2-hydroxy-phenyl)-oxalamide] | 296
O=C(Nc1cc(Cl)cc(Cl)c1O)C(=O)Nc1ccc(F)c(F)c1O [Example 20, N-(3,5-Dichloro-2-hydroxy-phenyl)-N′-(3,4-difluoro-2-hydroxy-phenyl)-oxalamide] | 302
O=C(Nc1cc(C(F)(F)F)ccc1O)C(=O)Nc1cc(Cl)cc(Cl)c1O [Example 21, N-(3,5-Dichloro-2-hydroxy-phenyl)-N′-(2-hydroxy-5-trifluoromethyl-phenyl)-oxalamide] | 281
O=C(Nc1ccc(C(=O)O)cc1O)C(=O)Nc1cc(Cl)cc(Cl)c1O [Example 24, 4-[(3,5-Dichloro-2-hydroxy-phenylaminooxalyl)-amino]-3-hydroxy-benzoic Acid] | 323
CCOC(=O)c1ccc(O)c(NC(=O)C(=O)Nc2cc(Cl)cc(Cl)c2O)c1 [Example 25, 3-[(3,5-Dichloro-2-hydroxy-phenylaminooxalyl)-amino]-4-hydroxy-benzoic Acid Ethyl Ester] | 270
CN1CCN(CCCNC(=O)c2ccc(O)c(NC(=O)C(=O)Nc3cc(Cl)cc(Cl)c3O)c2)CC1 [Example 30, N-(3,5-Dichloro-2-hydroxy-phenyl)-N′-{2-hydroxy-5-[3-(4-methyl-piperazin-1-yl)-propylcarbamoyl]-phenyl}-oxalamide] | 232
O=C(Nc1cc(C(=O)NCc2ccncc2)ccc1O)C(=O)Nc1cc(Cl)cc(Cl)c1O [Example 33, N-(3,5-Dichloro-2-hydroxy-phenyl)-N′-{2-hydroxy-5-[(pyridin-4-ylmethyl)-carbamoyl]-phenyl}-oxalamide] | 250
CN(C)CCCNC(=O)c1ccc(O)c(NC(=O)C(=O)Nc2cc(Cl)cc(Cl)c2O)c1 [Example 35, N-(3,5-Dichloro-2-hydroxy-phenyl)-N′-[5-(3-dimethylamino-propylcarbamoyl)-2-hydroxy-phenyl]-oxalamide] | 205
O=C(Nc1cc(C(=O)NCCCn2ccnc2)ccc1O)C(=O)Nc1cc(Cl)cc(Cl)c1O [Example 36, N-(3,5-Dichloro-2-hydroxy-phenyl)-N′-[2-hydroxy-5-(3-imidazol-1-yl-propylcarbamoyl)-phenyl]-oxalamide] | 175
O=C(Nc1ccc(C(=O)NCCCn2ccnc2)cc1O)C(=O)Nc1cc(Cl)cc(Cl)c1O [Example 43, N-(3,5-Dichloro-2-hydroxy-phenyl)-N′-[2-hydroxy-4-(3-imidazol-1-yl-propylcarbamoyl)-phenyl]-oxalamide] | 225
